Results published in patent US7393812B2, “Methylidene mevalonates and their use as herbicides” (Dow AgroSciences LLC, priority 2004, dated 2008).

Legend:
Experiment in all cases: Post-emergent evaluation
Assay type in all cases: in vivo
Details in all cases: after 2 weeks
[1] = system: giant foxtail (Setaria faberi, SETFA)
Experimental: (§1) Seeds of the desired test plant species were planted in Grace-Sierra MetroMix® 306 planting mixture, which typically has a pH of 6.0 to 6.8 and an organic matter content of about 30 percent, in plastic pots with a surface area of 64 square centimeters. When required to ensure good germination and healthy plants, a fungicide treatment and/or other chemical or physical treatment was applied. The plants were grown for 7-21 days in a greenhouse with an approximate 15 hr photoperiod which was maintained at about 23-29° C. during the day and 22-28° C. during the night. Nutrients and water were added on a regular basis and supplemental lighting was provided with overhead metal halide 1000-Watt lamps as necessary. The plants were employed for testing when they reached the first or second true leaf stage.
(§2) A weighed amount, determined by the highest rate to be tested, of each test compound was placed in a 20 mL glass vial and was dissolved in 4 mL of a 97:3 v/v (volume/volume) mixture of acetone and dimethyl sulfoxide (DMSO) to obtain concentrated stock solutions. […] The concentrated stock solutions obtained were diluted with an aqueous mixture containing acetone, water, isopropyl alcohol, DMSO, Atplus 411F crop oil concentrate, and Triton X-155 surfactant in a 48.5:39:10:1.5:1.0:0.02 v/v ratio to obtain spray solutions of known concentration. The solutions containing the highest concentration to be tested were prepared by diluting 2 mL aliquots of the stock solution with 13 mL of the mixture and lower concentrations were prepared by serial dilution of the stock solution. Approximately 1.5 mL aliquots of each solution of known concentration were sprayed evenly onto each of the test plant pots using a DeVilbiss atomizer driven by compressed air pressure of 2 to 4 psi ([…]) to obtain thorough coverage of each plant. Control plants were sprayed in the same manner with the aqueous mixture. In this test an application rate of 1 ppm results in the application of approximately 1 g/Ha.
(§3) The treated plants and control plants were placed in a greenhouse as described above and watered by sub-irrigation to prevent wash-off of the test compounds. […] Species abbreviations as described for Table I with the following additions: soybean (Glycine max, GLXMA), rape (Brassica napus, BRSNN), chickweed (Stellaria media, STEME), cocklebur (Xanthium strumarium XANST), lambsquarters (Chenopodium album, CHEAL), violet (Viola tricolor, VIOTR), bindweed (Polygonum convolvulus, POLCO), spurge (Euphorbia heterophylla, EPHHL), Canada thistle (Cirsium arvense, CIRAR), corn (Zea mays, ZEAMX), rice (Oryza sativa, ORYSA), wheat (Triticum aestivum, TRZAS), crabgrass (Digitaria sanguinalis, DIGSA), shattercane (Sorghum vulgare, SORVU) and yellow nutsedge (Cyperus esculentus, CYPES).
(§4) By applying the well-accepted probit analysis as described by J. Berkson in Journal of the American Statistical […], 48, 565 (1953) and by D. Finney in “Probit Analysis” Cambridge University Press (1952), similar data can be used to calculate GR80 values, which are defined as growth reduction factors that correspond to the effective dose of herbicide required to kill or control 80 percent of a target plant. Species abbreviations are as previously defined.

[2] = system: barnyardgrass (Echinochloa crusgalli, ECHCG)
Experimental: as §1, §2, §3, §4

[3] = system: violet (Viola tricolor, VIOTR)
Experimental: as §1, §2, §3, §4

[4] = system: shattercane (Sorghum vulgare, SORVU)
Experimental: as §1, §2, §3, §4

[5] = system: chickweed (Stellaria media, STEME)
Experimental: as §1, §2, §3, §4

[6] = system: velvetleaf (Abutilon theophrasti, ABUTH)
Experimental: as §1, §2, §3, §4

[7] = system: morningglory (Ipomoea hederacea, IPOHE)
Experimental: as §1, §2, §3, §4

Structure (SMILES): C=C(CO)C(C)(O)CC(=O)O (centres unmarked) [methylidene mevalonate, 3-hydroxy-4-(hydroxymethyl)-3-methylpent-4-enoic acid]
- Postemergent % Control ([1]; spray concentration 125 ppm): 30%
- Postemergent % Control ([1]; spray concentration 250 ppm): 70%
- Postemergent % Control ([1]; spray concentration 500 ppm): 70%
- Postemergent % Control ([1]; spray concentration 1000 ppm): 80%
- Postemergent % Control ([1]; spray concentration 2000 ppm): 90%
- Postemergent % Control ([2]; spray concentration 125 ppm): 40%
- Postemergent % Control ([2]; spray concentration 250 ppm): 85%
- Postemergent % Control ([2]; spray concentration 500 ppm): 95%
- Postemergent % Control ([2]; spray concentration 1000 ppm): 95%
- Postemergent % Control ([2]; spray concentration 2000 ppm): 100%
- Postemergent % Control ([3]; spray concentration 125 ppm): 0%
- Postemergent % Control ([3]; spray concentration 250 ppm): 0%
- Postemergent % Control ([3]; spray concentration 500 ppm): 0%
- Postemergent % Control ([3]; spray concentration 1000 ppm): 25%
- Postemergent % Control ([3]; spray concentration 2000 ppm): 30%
- Postemergent % Control ([4]; spray concentration 125 ppm): 0%
- Postemergent % Control ([4]; spray concentration 250 ppm): 50%
- Postemergent % Control ([4]; spray concentration 500 ppm): 90%
- Postemergent % Control ([4]; spray concentration 1000 ppm): 90%
- Postemergent % Control ([4]; spray concentration 2000 ppm): 90%
- Postemergent % Control ([5]; spray concentration 125 ppm): 0%
- Postemergent % Control ([5]; spray concentration 250 ppm): 0%
- Postemergent % Control ([5]; spray concentration 500 ppm): 0%
- Postemergent % Control ([5]; spray concentration 1000 ppm): 20%
- Postemergent % Control ([5]; spray concentration 2000 ppm): 40%
- Postemergent % Control ([6]; spray concentration 125 ppm): 0%
- Postemergent % Control ([6]; spray concentration 250 ppm): 5%
- Postemergent % Control ([6]; spray concentration 500 ppm): 20%
- Postemergent % Control ([6]; spray concentration 1000 ppm): 50%
- Postemergent % Control ([6]; spray concentration 2000 ppm): 60%
- Postemergent % Control ([7]; spray concentration 125 ppm): 40%
- Postemergent % Control ([7]; spray concentration 250 ppm): 50%
- Postemergent % Control ([7]; spray concentration 500 ppm): 70%
- Postemergent % Control ([7]; spray concentration 1000 ppm): 80%
- Postemergent % Control ([7]; spray concentration 2000 ppm): 80%
